From paper PMC12073402, “A Selective MAP3K1 Inhibitor Facilitates Discovery of NPM1 as a Member of the Network” (Molecules, 2025)

What was measured:
Test in all cases: KiNativ kinome profiling in PANC-1 lysate
Type in all cases: binding
AKT1 = target: T1, AKT1 (Homo sapiens, UniProt P31749); conditions: ATP Loop
T1 construct: endogenous in cells; host or cells: PANC-1 cell lysate
Source text: (§1) To assess target engagement and selectivity, we opted to conduct a kinome screen (KiNativ) in PANC-1 cell lysates. This chemical proteomics (chemoproteomics) methodology allows for the evaluation of small-molecule binding to protein kinases in native systems such as cell lysates. KiNativ utilizes a soluble chemical probe comprising ATP linked to biotin through an acyl-phosphate bond. The probe covalently modifies conserved lysine residues found in the ATP binding site of essentially all protein kinases (Figure 2A). To profile a kinase inhibitor, cell lysates are treated with a vehicle control or inhibitor prior to addition of the desthiobiotin ATP probe. The ATP probe occupies the ATP binding site in the kinase, which enables the conserved lysines to be biotinylated. […] The cell lysates are digested with a protease (trypsin), biotinylated peptides are affinity-enriched on streptavidin beads, and the labeled peptides are analyzed by liquid chromatography–tandem MS (Figure 2B). If an inhibitor binds to a kinase, it competes with the ATP, thus resulting in a loss of that kinase-associated peptide signal, allowing for the quantitative measurement of inhibitor binding. Unlike recombinant enzyme assays, KiNativ IC50 values are a direct measure of active site binding instead of enzymatic activity.
(§2) Kinome profiling quantified the activity of 51-106 against >300 kinases in the PANC-1 cells. The results summarized in Figure 2C are the average of duplicate control and duplicate treated samples with 5 μM of 51-106 or DMSO.
(§3) KiNativ assay with 51-106.
(§4) ATP Loop: ATP binding loop
(§5) Activation Loop: Activation loop
(§6) ATP: ATP site in non-canonical kinase (e.g. lipid kinase)
(§7) Protein Kinase Domain: Other lysine within kinase domain, possibly not in ATP binding site
(§8) Other: Labeling of residue outside of the protein kinase domain, possibly not in ATP binding site
(§9) No change. NB = No Binding (≤ 0)
(§10) >100% increase in MS signal (>2 fold increase)
(§11) Data points inhibited […] & not considered significant are left uncolored
(§12) Note: This KiNativ dataset is the result of an analysis of duplicate treated samples and control samples.
(§13) The % changes in MS signals being reported are statistically significant (Student T -test score < 0.04)

ATM = target: T2, ATM (Homo sapiens, UniProt Q13315); conditions: ATP
T2 construct: endogenous in cells; host or cells: PANC-1 cell lysate
Source text: as §1, §2, §3, §4, §5, §6, §7, §8, §9, §10, §11, §12, §13

AurA, AurB, AurC = conditions: 5 µM; ATP Loop; GKFGNVYLAR
Source text: as §1, §2, §3, §4, §5, §6, §7, §8, §9, §10, §11, §12, §13

CDK4 = target: T3, CDK4 (Homo sapiens, UniProt P11802); conditions: Lys2
T3 construct: endogenous in cells; host or cells: PANC-1 cell lysate
T3 sequence (P11802 whole entry): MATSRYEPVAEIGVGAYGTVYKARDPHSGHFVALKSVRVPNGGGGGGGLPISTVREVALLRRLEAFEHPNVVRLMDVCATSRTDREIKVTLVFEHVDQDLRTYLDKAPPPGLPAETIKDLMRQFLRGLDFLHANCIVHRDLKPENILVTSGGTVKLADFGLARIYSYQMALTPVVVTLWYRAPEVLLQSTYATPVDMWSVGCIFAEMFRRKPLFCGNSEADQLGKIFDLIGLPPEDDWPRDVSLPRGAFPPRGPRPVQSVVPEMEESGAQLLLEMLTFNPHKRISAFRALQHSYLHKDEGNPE
Source text: as §1, §2, §3, §4, §5, §6, §7, §8, §9, §10, §11, §12, §13

EphA2 = target: T4, EphA2 (Homo sapiens, UniProt P29317); conditions: ATP Loop
T4 construct: endogenous in cells; host or cells: PANC-1 lysate
Source text: as §1, §2, §3, §4, §5, §6, §7, §8, §9, §10, §11, §12, §13

Erk1 = target: T5, Erk1 (Homo sapiens, UniProt P27361); conditions: Lys2
T5 construct: endogenous in cells; host or cells: PANC-1 lysate
T5 sequence (P27361 whole entry): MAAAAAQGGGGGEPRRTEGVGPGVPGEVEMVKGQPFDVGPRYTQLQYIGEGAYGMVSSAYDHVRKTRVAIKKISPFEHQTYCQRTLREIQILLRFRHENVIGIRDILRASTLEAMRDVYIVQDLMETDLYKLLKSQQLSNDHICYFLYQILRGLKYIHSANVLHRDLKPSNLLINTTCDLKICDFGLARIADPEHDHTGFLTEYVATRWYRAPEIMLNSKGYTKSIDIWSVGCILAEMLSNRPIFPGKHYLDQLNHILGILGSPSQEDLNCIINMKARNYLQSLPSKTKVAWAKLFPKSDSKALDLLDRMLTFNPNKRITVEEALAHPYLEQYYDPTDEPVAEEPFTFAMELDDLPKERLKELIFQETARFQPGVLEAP
Source text: as §1, §2, §3, §4, §5, §6, §7, §8, §9, §10, §11, §12, §13

[1] = tested on: FGFR1, FMS, PDGFRb, TYRO3; conditions: 5 µM; Lys1; VAVKMLK
Source text: as §1, §2, §3, §4, §5, §6, §7, §8, §9, §10, §11, §12, §13

FRAP = target: T6, FRAP (Homo sapiens, UniProt P42345); conditions: ATP
T6 construct: endogenous in cells; host or cells: PANC-1 lysate
Source text: as §1, §2, §3, §4, §5, §6, §7, §8, §9, §10, §11, §12, §13

GAK = target: T7, GAK (Homo sapiens, UniProt O14976); conditions: Lys2
T7 construct: endogenous in cells; host or cells: PANC-1 lysate
Source text: as §1, §2, §3, §4, §5, §6, §7, §8, §9, §10, §11, §12, §13

GSK3B = target: T8, GSK3B (Homo sapiens, UniProt P49841); conditions: Lys2
T8 construct: we opted to conduct a kinome screen (KiNativ) in PANC-1 cell lysates; endogenous in cells; host or cells: PANC-1 cell lysate
Source text: as §1, §2, §3, §4, §5, §6, §7, §8, §9, §10, §11, §12, §13

MAP3K15, MAP3K5, MAP3K6 = target: T9, MAP3K15, MAP3K5, MAP3K6 (Homo sapiens, UniProt Q6ZN16); conditions: 5 μM; PANC-1 lysate
T9 construct: endogenous in cells; host or cells: PANC-1 cell lysate
Source text: as §1, §2, §3, §4, §5, §6, §7, §8, §9, §10, §11, §12, §13

MAP3K2 = target: T10, MAP3K2 (Homo sapiens, UniProt Q9Y2U5); conditions: Lys1
T10 construct: endogenous in cells; host or cells: PANC-1 cell lysate
Source text: as §1, §2, §3, §4, §5, §6, §7, §8, §9, §10, §11, §12, §13

MAPKAPK2, MAPKAPK3 = conditions: 5 µM; Lys2; DVKPENLLYTSK
Source text: as §1, §2, §3, §4, §5, §6, §7, §8, §9, §10, §11, §12, §13

MAPKAPK3 = target: T11, MAPKAPK3 (Homo sapiens, UniProt Q16644)
T11 construct: endogenous in cells; host or cells: PANC-1 cell lysate
T11 sequence (Q16644 whole entry): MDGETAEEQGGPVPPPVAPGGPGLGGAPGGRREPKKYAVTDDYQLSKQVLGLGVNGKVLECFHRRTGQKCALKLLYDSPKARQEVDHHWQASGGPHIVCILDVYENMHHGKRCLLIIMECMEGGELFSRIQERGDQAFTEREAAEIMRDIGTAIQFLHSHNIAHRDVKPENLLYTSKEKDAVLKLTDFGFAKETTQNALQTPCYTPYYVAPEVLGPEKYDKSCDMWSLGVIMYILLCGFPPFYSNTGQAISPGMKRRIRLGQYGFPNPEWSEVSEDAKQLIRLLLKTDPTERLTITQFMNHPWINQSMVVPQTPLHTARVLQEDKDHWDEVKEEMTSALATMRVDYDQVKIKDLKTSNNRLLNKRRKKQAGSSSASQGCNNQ
Source text: as §1, §2, §3, §4, §5, §6, §7, §8, §9, §10, §11, §12, §13

MARK3 = target: T12, MARK3 (Homo sapiens, UniProt P27448); conditions: Lys1
T12 construct: endogenous in cells; host or cells: PANC-1 cell lysate
Source text: as §1, §2, §3, §4, §5, §6, §7, §8, §9, §10, §11, §12, §13

NEK4 = target: T13, NEK4 (Homo sapiens, UniProt P51957); conditions: Lys2
T13 construct: endogenous in cells; host or cells: PANC-1 cell lysate
Source text: as §1, §2, §3, §4, §5, §6, §7, §8, §9, §10, §11, §12, §13

PDK1 = target: T14, PDK1 (Homo sapiens, UniProt O15530); conditions: Lys1
T14 construct: endogenous in cells; host or cells: PANC-1 cell lysate
Source text: as §1, §2, §3, §4, §5, §6, §7, §8, §9, §10, §11, §12, §13

PEK = target: T15, PEK (Homo sapiens, UniProt Q9NZJ5); conditions: Lys2
T15 construct: endogenous in cells; host or cells: PANC-1 cell lysate
Source text: as §1, §2, §3, §4, §5, §6, §7, §8, §9, §10, §11, §12, §13

PFTAIRE2 = target: T16, PFTAIRE2 (Homo sapiens, UniProt Q96Q40); conditions: Lys2
T16 construct: endogenous in cells; host or cells: PANC-1 cell lysate
Source text: as §1, §2, §3, §4, §5, §6, §7, §8, §9, §10, §11, §12, §13

PIP4K2B = target: T17, PIP4K2B (Homo sapiens, UniProt P78356); conditions: ATP
T17 construct: endogenous in cells; host or cells: PANC-1 cell lysate
Source text: as §1, §2, §3, §4, §5, §6, §7, §8, §9, §10, §11, §12, §13

RIPK2 = target: T18, RIPK2 (Homo sapiens, UniProt O43353); conditions: Lys2
T18 construct: endogenous in cells; host or cells: PANC-1 cell lysate
T18 sequence (O43353 whole entry): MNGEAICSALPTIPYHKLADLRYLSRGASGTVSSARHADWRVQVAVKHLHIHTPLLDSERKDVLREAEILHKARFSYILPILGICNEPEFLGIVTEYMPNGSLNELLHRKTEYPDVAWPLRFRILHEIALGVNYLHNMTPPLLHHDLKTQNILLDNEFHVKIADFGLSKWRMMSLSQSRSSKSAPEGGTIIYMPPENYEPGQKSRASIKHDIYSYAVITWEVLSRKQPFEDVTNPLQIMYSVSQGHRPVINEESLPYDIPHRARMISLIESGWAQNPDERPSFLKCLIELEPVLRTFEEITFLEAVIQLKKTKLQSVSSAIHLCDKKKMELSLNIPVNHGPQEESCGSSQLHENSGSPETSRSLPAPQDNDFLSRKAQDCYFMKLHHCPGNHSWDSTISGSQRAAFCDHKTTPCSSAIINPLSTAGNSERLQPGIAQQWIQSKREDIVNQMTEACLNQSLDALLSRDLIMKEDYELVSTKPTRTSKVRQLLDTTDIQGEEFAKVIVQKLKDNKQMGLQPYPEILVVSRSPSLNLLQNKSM
Source text: as §1, §2, §3, §4, §5, §6, §7, §8, §9, §10, §11, §12, §13

STLK5 = target: T19, STLK5 (Homo sapiens, UniProt Q7RTN6)
T19 construct: endogenous in cells; host or cells: PANC-1 cell lysate
T19 sequence (Q7RTN6 whole entry): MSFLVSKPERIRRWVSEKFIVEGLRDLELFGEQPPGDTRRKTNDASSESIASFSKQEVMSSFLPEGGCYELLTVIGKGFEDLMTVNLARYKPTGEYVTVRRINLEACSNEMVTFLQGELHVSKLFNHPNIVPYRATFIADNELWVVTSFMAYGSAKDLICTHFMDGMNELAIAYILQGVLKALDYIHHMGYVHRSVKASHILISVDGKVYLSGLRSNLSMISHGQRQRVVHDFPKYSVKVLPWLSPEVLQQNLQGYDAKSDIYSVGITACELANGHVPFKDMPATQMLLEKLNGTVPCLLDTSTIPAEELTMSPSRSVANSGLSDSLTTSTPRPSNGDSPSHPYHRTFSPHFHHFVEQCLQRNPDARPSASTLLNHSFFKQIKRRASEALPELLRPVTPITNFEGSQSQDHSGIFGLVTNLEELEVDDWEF
Source text: as §1, §2, §3, §4, §5, §6, §7, §8, §9, §10, §11, §12, §13

TEC = target: T20, TEC (Homo sapiens, UniProt P42680); conditions: ATP Loop
T20 construct: endogenous in cells; host or cells: PANC-1 cell lysate
T20 sequence (P42680 whole entry): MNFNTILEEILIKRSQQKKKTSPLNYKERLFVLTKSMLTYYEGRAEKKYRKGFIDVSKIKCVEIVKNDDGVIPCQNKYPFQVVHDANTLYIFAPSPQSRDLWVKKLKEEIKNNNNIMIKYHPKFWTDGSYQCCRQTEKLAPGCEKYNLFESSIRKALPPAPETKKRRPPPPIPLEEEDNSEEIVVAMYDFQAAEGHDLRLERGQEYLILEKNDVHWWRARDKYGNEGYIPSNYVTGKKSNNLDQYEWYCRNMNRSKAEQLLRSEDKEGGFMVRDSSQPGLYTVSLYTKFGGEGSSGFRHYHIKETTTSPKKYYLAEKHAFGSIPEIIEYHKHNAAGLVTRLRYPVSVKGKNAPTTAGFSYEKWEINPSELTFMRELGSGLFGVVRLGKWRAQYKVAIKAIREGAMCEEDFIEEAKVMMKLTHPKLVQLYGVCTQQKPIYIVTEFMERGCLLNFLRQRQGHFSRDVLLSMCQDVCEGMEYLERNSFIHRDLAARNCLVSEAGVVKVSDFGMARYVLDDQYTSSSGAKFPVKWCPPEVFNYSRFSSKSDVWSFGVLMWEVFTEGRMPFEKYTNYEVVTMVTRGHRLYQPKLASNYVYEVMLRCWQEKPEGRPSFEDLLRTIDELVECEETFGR
Source text: as §1, §2, §3, §4, §5, §6, §7, §8, §9, §10, §11, §12, §13

TLK2 = target: T21, TLK2 (Homo sapiens, UniProt Q86UE8)
T21 construct: endogenous in cells; host or cells: PANC-1 cell lysate
T21 sequence (Q86UE8 whole entry): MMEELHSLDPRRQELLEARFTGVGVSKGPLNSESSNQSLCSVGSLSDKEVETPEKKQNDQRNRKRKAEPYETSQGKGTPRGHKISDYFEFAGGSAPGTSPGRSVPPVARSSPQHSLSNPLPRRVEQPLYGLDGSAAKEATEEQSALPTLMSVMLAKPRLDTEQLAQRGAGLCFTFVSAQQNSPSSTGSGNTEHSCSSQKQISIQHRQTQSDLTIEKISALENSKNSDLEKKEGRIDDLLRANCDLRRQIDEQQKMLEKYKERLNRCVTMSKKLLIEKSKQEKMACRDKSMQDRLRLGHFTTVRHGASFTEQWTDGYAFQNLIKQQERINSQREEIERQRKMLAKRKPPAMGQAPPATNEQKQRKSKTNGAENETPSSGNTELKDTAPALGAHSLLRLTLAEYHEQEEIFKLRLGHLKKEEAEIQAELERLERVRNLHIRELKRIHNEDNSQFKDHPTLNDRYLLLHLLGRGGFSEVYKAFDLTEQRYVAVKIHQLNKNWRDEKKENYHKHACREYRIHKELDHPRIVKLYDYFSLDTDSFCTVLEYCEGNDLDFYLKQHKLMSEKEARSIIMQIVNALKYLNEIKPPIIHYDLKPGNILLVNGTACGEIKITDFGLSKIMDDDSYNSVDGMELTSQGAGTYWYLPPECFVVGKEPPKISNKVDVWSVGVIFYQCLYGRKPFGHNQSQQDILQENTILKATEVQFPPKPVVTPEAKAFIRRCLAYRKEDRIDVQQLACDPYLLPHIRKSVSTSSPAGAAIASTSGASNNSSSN
Source text: as §1, §2, §3, §4, §5, §6, §7, §8, §9, §10, §11, §12, §13

ULK1 = target: T22, ULK1 (Homo sapiens, UniProt O75385); conditions: Lys2
T22 construct: endogenous in cells; host or cells: PANC-1 cell lysate
Source text: as §1, §2, §3, §4, §5, §6, §7, §8, §9, §10, §11, §12, §13

Wee1 = target: T23, Wee1 (Homo sapiens, UniProt P30291); conditions: Lys2
T23 construct: endogenous in cells; host or cells: PANC-1 cell lysate
Source text: as §1, §2, §3, §4, §5, §6, §7, §8, §9, §10, §11, §12, §13

Wnk1, Wnk2 = conditions: 5 µM; ATP Loop; GSFKTVYK
Source text: as §1, §2, §3, §4, §5, §6, §7, §8, §9, §10, §11, §12, §13

ZAK = target: T24, ZAK (Homo sapiens, UniProt Q9NYL2); conditions: Lys1
T24 construct: endogenous in cells; host or cells: PANC-1 cell lysate
T24 sequence (Q9NYL2 whole entry): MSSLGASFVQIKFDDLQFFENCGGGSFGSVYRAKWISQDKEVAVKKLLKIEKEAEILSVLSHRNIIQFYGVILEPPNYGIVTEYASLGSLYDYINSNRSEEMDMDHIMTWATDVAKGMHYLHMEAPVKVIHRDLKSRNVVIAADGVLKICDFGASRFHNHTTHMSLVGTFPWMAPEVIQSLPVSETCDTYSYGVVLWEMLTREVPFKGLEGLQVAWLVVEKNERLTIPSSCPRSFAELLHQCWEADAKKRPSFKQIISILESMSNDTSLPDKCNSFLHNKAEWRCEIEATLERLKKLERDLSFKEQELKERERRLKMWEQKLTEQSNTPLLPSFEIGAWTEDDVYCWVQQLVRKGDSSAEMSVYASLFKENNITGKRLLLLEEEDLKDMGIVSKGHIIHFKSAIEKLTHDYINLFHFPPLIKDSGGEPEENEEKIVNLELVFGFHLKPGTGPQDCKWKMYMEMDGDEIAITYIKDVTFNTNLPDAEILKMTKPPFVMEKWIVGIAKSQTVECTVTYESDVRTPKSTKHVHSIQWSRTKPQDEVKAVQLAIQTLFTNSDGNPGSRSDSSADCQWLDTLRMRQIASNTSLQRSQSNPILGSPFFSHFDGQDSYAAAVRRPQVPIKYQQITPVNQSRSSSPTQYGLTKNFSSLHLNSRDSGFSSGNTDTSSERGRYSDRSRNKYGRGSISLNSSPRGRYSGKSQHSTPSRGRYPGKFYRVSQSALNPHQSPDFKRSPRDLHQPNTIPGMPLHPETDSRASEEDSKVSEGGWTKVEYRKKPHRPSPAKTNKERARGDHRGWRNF
Source text: as §1, §2, §3, §4, §5, §6, §7, §8, §9, §10, §11, §12, §13

T1 sequence (P31749 whole entry): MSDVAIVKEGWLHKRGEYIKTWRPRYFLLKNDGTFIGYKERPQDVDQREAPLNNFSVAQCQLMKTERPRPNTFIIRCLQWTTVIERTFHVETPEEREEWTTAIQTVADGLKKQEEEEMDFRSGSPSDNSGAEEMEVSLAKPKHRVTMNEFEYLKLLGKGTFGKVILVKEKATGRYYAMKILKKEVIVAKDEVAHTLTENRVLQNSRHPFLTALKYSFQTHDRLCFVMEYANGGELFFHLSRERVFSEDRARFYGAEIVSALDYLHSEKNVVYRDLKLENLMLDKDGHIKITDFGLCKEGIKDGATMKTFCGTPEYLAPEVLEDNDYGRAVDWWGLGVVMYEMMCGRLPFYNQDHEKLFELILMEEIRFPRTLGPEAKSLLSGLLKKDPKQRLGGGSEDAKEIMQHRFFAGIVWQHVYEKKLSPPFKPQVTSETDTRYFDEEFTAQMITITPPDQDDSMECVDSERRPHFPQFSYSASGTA

Q: For `Cn1cc(-c2cnc3ccc(NC(=O)Nc4ccc(F)c(C(F)(F)F)c4)cc3n2)cn1` [51-106, 1-(4-Fluoro-3-(trifluoromethyl)phenyl)-3-(3-(1-methyl-1H-pyrazol-4-yl)quinoxalin-6-yl)urea], which inhibition at 5 µM (AKT1) is on record?
A: ≤ 0%

Q: What about the inhibition at 5 µM (ATM) of the same molecule?
A: 7.4%

Q: What about the “% Inhibition” value (AurA, AurB, AurC) of the same molecule?
A: NB (NB = No Binding (≤ 0))

Q: What about the inhibition at 5 µM (CDK4) of the same molecule?
A: 3.2%

Q: What about the inhibition at 5 µM (EphA2) of the same molecule?
A: ≤ 0%

Q: And the inhibition at 5 µM (Erk1)?
A: ≤ 0%

Q: And the “% Inhibition” value [1]?
A: NB (NB = No Binding (≤ 0))

Q: What about the inhibition at 5 µM (FRAP) of the same molecule?
A: ≤ 0%

Q: And the inhibition at 5 µM (GAK)?
A: 1%

Q: And the inhibition at 5 µM (GSK3B)?
A: ≤ 0%

Q: And the “inhibition of MAP3K15 (in words)” value (MAP3K15, MAP3K5, MAP3K6)?
A: did not inhibit

Q: What about the inhibition at 5 µM (MAP3K2) of the same molecule?
A: ≤ 0%

Q: What about the “% Inhibition” value (MAPKAPK2, MAPKAPK3) of the same molecule?
A: NB (NB = No Binding (≤ 0))

Q: What about the “% Inhibition” value (MAPKAPK3; 5 µM, Lys1, CALKLLYDSPK) of the same molecule?
A: NB (NB = No Binding (≤ 0))

Q: What about the inhibition at 5 µM (MAPKAPK3; ATP Loop, […]) of the same molecule?
A: ≤ 0%

Q: What about the inhibition at 5 µM (MARK3) of the same molecule?
A: ≤ 0%

Q: What about the inhibition at 5 µM (NEK4) of the same molecule?
A: 5.8%

Q: What about the inhibition at 5 µM (PDK1) of the same molecule?
A: ≤ 0%

Q: And the inhibition at 5 µM (PEK)?
A: 10.9%

Q: And the inhibition at 5 µM (PFTAIRE2)?
A: ≤ 0%

Q: What about the inhibition at 5 µM (PIP4K2B) of the same molecule?
A: ≤ 0%

Q: What about the inhibition at 5 µM (RIPK2) of the same molecule?
A: ≤ 0%

Q: And the “% Inhibition” value (STLK5; 5 µM, Lys2, SVKASHILISVDGK)?
A: NB (NB = No Binding (≤ 0))

Q: What about the inhibition at 5 µM (STLK5; ATP Loop, […]) of the same molecule?
A: ≤ 0%

Q: What about the inhibition at 5 µM (TEC) of the same molecule?
A: 20.1%

Q: And the inhibition at 5 µM (TLK2; Lys1, YVAVKIHQLNK)?
A: 1.2%

Q: What about the inhibition at 5 µM (TLK2; Lys2, YLNEIKPPIIHYDLKPGNILLVNGTACGEIK) of the same molecule?
A: 1.7%

Q: And the inhibition at 5 µM (ULK1)?
A: ≤ 0%

Q: And the inhibition at 5 µM (Wee1)?
A: 2.2%

Q: What about the “% Inhibition” value (Wnk1, Wnk2) of the same molecule?
A: NB (NB = No Binding (≤ 0))

Q: And the inhibition at 5 µM (ZAK)?
A: ≤ 0%
